{"source": "patent US10471080B2", "about": "“Use of trehalose for prevention of neural tube defects” (UNIVERSITY OF MARYLAND, BALTIMORE, priority 2012, dated 2019)", "key": {"[1]": {"tested_on": "maternal diabetes-induced NTDs", "assay": "In vivo mouse model of diabetic embryopathy, morphologic assessment of NTDs at E11.5", "protocol": "In vivo mouse model of diabetic embryopathy and morphologic assessment of NTDs. The mouse model of diabetic embryopathy was previously described (21, 22). Briefly, female mice were intravenously (i.v.) injected daily with 75 mg/kg streptozotocin (STZ) over two days to induce diabetes. Nondiabetic WT with vehicle injection served as controls. Diabetes was defined as 12-hour fasting blood glucose levels ≥250 mg/dl, which normally occurred at 3-5 days after STZ injections. There is no residual toxic effect caused by STZ in this animal model. Embryos were gathered at E8.75 (2:00 PM at E8.5) for analysis and at E11.5 from NTD examination.\n(§1) Trehalose treatment and trehalose measurement. Concentrations of either 2% or 5% (gram/volume [ml]) trehalose (Cat#: T9531, Sigma) were given to WT nondiabetic and diabetic pregnant mice at E5.5 in drinking water. Trehalose levels in maternal serum and embryos were determined by the Trehalose Kit from Megazyme (Wicklow, Ireland).\nStatistical analyses. Statistical differences were determined by Student's t-test for two group comparisons and One way ANOVA for more than two groups comparisons using SigmaStat 3.5 software. In ANOVA analysis, Tukey-test was used to estimate the significance of the results. Significant difference between groups in NTD incidence was analyzed by Chi-square test."}, "[2]": {"assay": "Trehalose measurement in maternal serum and embryos (Trehalose Kit, Megazyme)", "type": "in vivo, mouse", "conditions": "diabetic dams", "protocol": "as §1"}, "LC3-II [3]": {"tested_on": "LC3-II", "assay": "LC3-II levels in E8.75 embryos", "type": "in vivo, mouse", "conditions": "E8.75 embryos of diabetic dams"}, "[4]": {"tested_on": "embryonic neuroepithelial cells", "assay": "GFP-LC3 puncta analysis in GFP-LC3 transgenic mice", "type": "in vivo, mouse", "protocol": "GFP-LC3 puncta analysis. GFP-LC3 transgenic (Tg) mice were used to quantify autophagy in vivo. E8.75 embryos were gathered, fixed in 4% paraformaldehyde (PFA) in PBS for 30 min at 4° C., quickly frozen, and cryosectioned at […] GFP florescent images in embryonic neuroepithelial cells were recorded by confocal microscopy using a laser scanning microscope (LSM 510 META, ZEISS). GFP-LC3 punctate foci with a diameter greater than or equal to 20 pixels in each cell were calculated by Image J software according to the manufacturer's manual."}, "neuroepithelial cells": {"tested_on": "neuroepithelial cells", "assay": "Electron microscopy of autophagosomes and mitochondria in E8.75 neuroepithelia", "type": "in vivo, mouse", "description": "Electron microscopy. The structures of autophagosome and mitochondria were examined by transmission electron microscopy (EM) in the University of Maryland EM core facility. Thick sections (1 μm) were cut and visualized at ×100 magnifications to identify the neuroepithelia of E8.75 embryos. Thin sections (80 nm) of identified neuroepithelia were cut and viewed with an electron microscope (Joel JEM-1200EX; Tokyo, Japan) under high-power resolution (10, 12 and 25 K) for identification of cellular organelle structures."}, "[5]": {"tested_on": "ULK1, Beclin 1, Atg3, Atg5, Ambra1, p62, Dap", "assay": "Autophagy-related gene expression in E8.75 embryos", "type": "in vivo, mouse", "conditions": "diabetic group"}, "[6]": {"tested_on": "ER stress and JNK1/2 activation", "assay": "ER stress markers and JNK1/2 activation in E8.75 embryos", "type": "in vivo, mouse", "conditions": "diabetic group with 5% trehalose"}, "[7]": {"tested_on": "neuroepithelial cell apoptosis", "assay": "Pro-apoptotic Bcl-2 members, caspase cleavage and TUNEL assay in E8.75 embryos", "type": "in vivo, mouse", "conditions": "diabetic group with 5% trehalose", "protocol": "TUNEL assay. TUNEL assay was performed as previously described (21, 22). Briefly, 5-μm serial coronal sections through the forebrain-midbrain (FB-MB) boundary of the anterior neural tube were fixed with 4% PFA in PBS and incubated with TUNEL reaction agents. Closure at the FB-MB boundary is an essential step for closure of the anterior neural tube, and failed closure in this area results in exencephaly (2, 8). TUNEL-positive cells were counted in the neural tube area of each section. Based on the counting of total cell nuclei, the sizes of the neural tube areas of each section were relatively constant. Thus, apoptotic cell numbers were expressed as total TUNEL-positive cells per neural tube area. TUNEL assays were performed without the observer knowing the experimental group of the embryo examined."}, "[8]": {"tested_on": "4-HNE, MDA, nitrotyrosine or ubiquitin-modified proteins", "assay": "Levels of oxidized and ubiquitin-modified (dysfunctional) proteins in E8.75 embryos", "type": "in vivo, mouse", "conditions": "diabetic group with 5% trehalose"}, "[9]": {"tested_on": "neurogenesis in the developing neural tube", "assay": "Immunofluorescent staining of TuJ1 and Sox1 in developing neural tubes (neurogenesis)", "type": "in vivo, mouse", "conditions": "neural tubes exposed to diabetes", "protocol": "Immunofluorescent staining. […] Deparaffinized sections were incubated with TuJ 1 antibody (Covance, #MMS-435P) at 1:400 dilution or Sox1 antibody (Cell Signaling, #4194) at 1:100 dilution in PBS with 10% heat-inactivated donkey serum overnight at 4° C. After washes in PBS, sections were incubated with secondary antibodies, Alexa Fluor® 488 Donkey Anti-Mouse IgG to TuJ1, and Alexa Fluor® 594 Donkey Anti-Rabbit IgG to Sox1. Cell nuclei were stained with DAPI (Blue). Immunofluorescent staining was examined by immunofluorescence microscopy. In order to visualize neurogenesis throughout the anterior neural tube, serial sections through the entire anterior neural tube were analyzed and representative images were shown. The earliest neurogenesis site was found at the boundary of midbrain and hindbrain. Five embryos from five dams per group were analyzed."}, "autophagy": {"tested_on": "autophagy", "conditions": "in vitro; cited from earlier work"}, "LC3-II [10]": {"tested_on": "LC3-II", "assay": "LC3-II levels in cultured E8 embryos under high glucose with or without Chloroquine", "conditions": "high glucose 250 mg/dl, 25 μmol/L Chloroquine"}, "NTDs": {"tested_on": "NTDs", "conditions": "cited from earlier work"}}}
{"compound": "OC[C@H]1O[C@H](O[C@H]2O[C@H](CO)[C@@H](O)[C@H](O)[C@H]2O)[C@H](O)[C@@H](O)[C@@H]1O", "note": "[trehalose]", "values": [{"measurement": "maternal diabetes-induced NTDs", "setting": "[1]; 2% trehalose, diabetic dams, lesser extent than 5%", "value": "significantly reduced maternal diabetes-induced NTDs"}, {"measurement": "NTD rate", "setting": "[1]; Diabetic + 2% trehalose in drinking water from E5.5, E11.5, total NTD embryos/total embryos", "value": 9.8, "unit": "%"}, {"measurement": "Resorption Rates", "setting": "[1]; Diabetic + 2% trehalose, E11.5", "value": 4.7}, {"measurement": "Total NTD Embryos", "setting": "[1]; Diabetic + 2% trehalose, E11.5, of 41 total embryos", "value": 4}, {"measurement": "NTD rate", "setting": "[1]; Nondiabetic + 2% trehalose in drinking water from E5.5, E11.5, total NTD embryos/total embryos", "value": 0, "unit": "%"}, {"measurement": "Resorption Rates", "setting": "[1]; Nondiabetic + 2% trehalose, E11.5", "value": 4.8}, {"measurement": "Total NTD Embryos", "setting": "[1]; Nondiabetic + 2% trehalose, E11.5, of 29 total embryos", "value": 0}, {"measurement": "NTD rate", "setting": "[1]; embryos from diabetic dams treated with 5% trehalose water (weight/volume), calculated by litters", "value": "4.0±2.2", "unit": "%"}, {"measurement": "NTD rate", "setting": "[1]; embryos from nondiabetic dams with or without trehalose treatment", "value": "0.0±0.0", "unit": "%"}, {"measurement": "Resorption Rates", "setting": "[1]; nondiabetic and diabetic dams with or without trehalose treatments", "value": "did not differ"}, {"measurement": "embryonic trehalose levels", "setting": "[2]; 2% group", "value": "15.8±1.0", "unit": "μg/g tissue"}, {"measurement": "trehalose in maternal blood", "setting": "[2]; 2% trehalose in drinking water", "value": "162.0 ± 16.9", "unit": "µg/mL"}, {"measurement": "embryonic trehalose levels", "setting": "[2]; 5% group", "value": "53.9±3.7", "unit": "μg/g tissue"}, {"measurement": "trehalose in maternal blood", "setting": "[2]; 5% trehalose in drinking water", "value": "503.9 ± 19.3", "unit": "µg/mL"}, {"measurement": "LC3-II expression", "setting": "LC3-II [3]", "value": "restored maternal diabetes-diminished LC3-II expression"}, {"measurement": "number of autophagic GFP-LC3 puncta in neuroepithelial cells", "setting": "[4]; diabetic group treated with trehalose, E8.75", "value": "restored to the level of that observed in the nondiabetic groups"}, {"measurement": "basal autophagy activities in neuroepithelial cells", "setting": "[4]; nondiabetic group", "value": "did not affect basal autophagy activities"}, {"measurement": "number of defective mitochondria", "setting": "neuroepithelial cells; diabetic conditions, E8.75 neuroepithelia", "value": "significantly reduced the number of defective mitochondria to a level comparable to that in the nondiabetic control group"}, {"measurement": "autophagosome formation in neuroepithelial cells", "setting": "neuroepithelial cells; diabetic group, E8.75", "value": "blocked maternal diabetes-repressed autophagosome formation"}, {"measurement": "expression of ULK1, Beclin 1, Atg3, Atg5, and Ambra1", "setting": "[5]", "value": "blocked the downregulation"}, {"measurement": "expression of p62 and Dap", "setting": "[5]", "value": "blocked"}, {"measurement": "JNK1/2 activation and downstream effector c-Jun", "setting": "[6]", "value": "completely abolished maternal diabetes-induced JNK1/2 activation"}, {"measurement": "XBP1 mRNA splicing", "setting": "[6]", "value": "diminished XBP1 mRNA splicing"}, {"measurement": "expression or phosphorylation of ER chaperone proteins BiP, CHOP, eIF2α", "setting": "[6]", "value": "abrogated maternal diabetes-increased expression or phosphorylation"}, {"measurement": "expression of 7 ER chaperone genes", "setting": "[6]; mRNA", "value": "abolished"}, {"measurement": "BID cleavage", "setting": "[7]", "value": "prevented"}, {"measurement": "caspase 3 and 8 cleavage", "setting": "[7]", "value": "abolished maternal diabetes-induced caspase 3 and 8 cleavage"}, {"measurement": "level of phosphorylated Bad", "setting": "[7]", "value": "restored"}, {"measurement": "neuroepithelial cell apoptosis (TUNEL)", "setting": "[7]", "value": "blocked neuroepithelial cell apoptosis"}, {"measurement": "levels of 4-HNE, MDA, nitrotyrosine or ubiquitin-modified proteins", "setting": "[8]", "value": "blocked maternal diabetes-increased levels of all of these modified proteins"}, {"measurement": "differentiation of Sox1 positive neural progenitors", "setting": "[9]", "value": "corrected maternal diabetes-blocked differentiation of Sox1 positive neural progenitors"}, {"measurement": "neurogenesis (TuJ1 expressing neurons)", "setting": "[9]; E9.0 to E10.5", "value": "reversed delayed neurogenesis"}, {"measurement": "autophagy stimulating activities", "setting": "autophagy", "value": "possess autophagy stimulating activities in vitro"}]}
{"compound": "CCN(CC)CCCC(C)Nc1ccnc2cc(Cl)ccc12", "note": "(centres unmarked) [Chloroquine]", "values": [{"measurement": "high glucose-induced LC3-II reduction", "setting": "LC3-II [10]", "value": "did not block high glucose-induced LC3-II reduction"}]}
{"compound": "O[C@H]1[C@H](O)[C@@H](O)[C@H](O)[C@@H](O)[C@H]1O", "note": "[inositol]", "values": [{"measurement": "folate-resistant NTDs", "setting": "NTDs", "value": "can prevent some of the folate-resistant NTDs"}]}
